Results reported in US10689352B2, “Solid state forms of trisodium valsartan: sacubitril” (Teva Pharmaceuticals International GMBH, priority 2015, dated 2020).

What was measured:
[1] = Circularity (morphology) by image analysis, Morphologi G3; type: physicochemical; conditions: agglomerates, sieved through 300 μm, volume basis; e.g. as prepared according to Example 19
Text: As used herein, circularity refers to the ratio of the perimeter of a circle with the same area as the particle divided by the perimeter of the actual particle image. Circularity is preferably determined by measurement of the particles following sieving through a sieve having a pore size of 300 μm. The particles are preferably measured following analysis of photographs of the particles at an appropriate magnification (e.g. 2.5 to 5.0 times magnification). More particularly, the sample is analyzed using Morphologi G3 instrumentation. The collected data can be processed using image analysis. Circularity is a ratio of the perimeter of a circle with the same area as the particle divided by the perimeter of the actual particle image.
Sample was sieved through a sieve with pore size 300 μm. The sieved material was dispersed on the glass surface at 0.5 bar and then images were taken at 2.5-5.0× magnification using Morphologi G3 (Malvern). Collected data was processed using image analysis. Circularity is a ratio of the perimeter of a circle with the same area as the particle divided by the perimeter of the actual particle image.

[2] = Storage stability (chemical and polymorphic); type: physicochemical
Text: A crystalline form according to Paragraph 2, which is characterized by an X-ray powder diffraction pattern having peaks at 5.8, 7.3, 12.9, 15.9, 16.5 and 18.6 degrees two theta±0.2 degrees two theta and also having any one, any two, any three or more additional peaks selected from: 4.3, 9.4, 10.0, 10.9 and 14.7 two theta±0.2 degrees two theta. • 4. A crystalline form according to Paragraph 2, which is characterized by the X-ray powder diffraction pattern having peaks at 7.3, 16.5, 9.4, 10.9 and 14.7 two theta±0.2 degrees two theta and also having any one, any two, any three or more additional peaks selected from: 4.3, 5.8, 10.0, 12.9, 15.9 and 18.6 two theta±0.2 degrees two theta and optionally further characterized by an FTIP spectrum as depicted in FIG. 6. • 5. A crystalline form according to Paragraph 1 or Paragraph 2, which is characterized by the X-ray powder diffraction pattern having peaks at 4.3, 5.8, 7.3, 9.4, 10.0, 10.9, 12.9, 14.7, 15.9, 16.5, and 18.6 two theta±0.2 degrees two theta±0.2 degrees two theta. • 6. A crystalline form according to Paragraph 5, which is further characterized by X-ray powder diffraction d-spacings at: 20.341, 15.261, 12.068, 9.397, 8.826, 8.092, 6.863, 6.024, 5.583, 5.353 and 4.773 Å±0.1 Å. • 7. A crystalline form according to any of Paragraphs 1, 2, 3 or 4, further characterized by an X-ray powder diffraction pattern having one, two, three, four five, or more than 5 additional peaks selected from: 4.3, 5.0, 5.5, 5.8, 7.3, 8.5, 8.9, 9.4, 10.0, 10.9, 11.6, 12.9, 13.7, 13.9, 14.7, 14.8, 15.1, 15.3, 15.9, 16.5, 17.3, 17.6, 18.6, 19.1, 19.5, 20.3, 21.2, 21.9 and 23.1 degrees two theta±0.2 degrees two theta. • 8. A crystalline form according to any of Paragraphs 1, 2, 3, 4, 5, 6 or 7, which is characterized by an X-ray powder diffraction pattern having peaks at: 4.3, 5.0, 5.5, 5.8, 7.3, 8.5, 8.9, 9.4, 10.0, 10.9, 11.6, 12.9, 13.7, 13.9, 14.7, 14.8, 15.1, 15.3, 15.9, 16.5, 17.3, 17.6, 18.6, 19.1, 19.5, 20.3, 21.2, 21.9 and 23.1 degrees two theta±0.2 degrees two theta. • 9. A crystalline form according to Paragraph 8, which is further characterized by the absence of any peak (defined as relative intensity I/Io of less than 1%) between any of two neighboring peaks. • 10. A crystalline form according to any of Paragraphs 1, 2, 3, 4, 5, 6, 7, 8 or 9, further characterized by an X-ray powder diffraction pattern as depicted in FIG. 1 or FIG. 14 and/or a solid state ^13C NMR as depicted in FIG. 5. • 11. A crystalline form according to any of Paragraphs 1, 2, 3, 4, 5, 6, 7, 8, 9 or 10, further characterized by a DSC as depicted in FIG. 2. • 12. A crystalline form according to any of Paragraphs 2-11 further characterized by a solid state ^13C NMR spectrum having peaks at 176.8, 161.9, 141.1, 139.5, 138.6, 137.2, 129.3, 128.7, 126.3, 124.9, 64.2, 60.6, 47.5, 46.1, 40.1, 39.0, 38.1, 34.3, 32.7, 29.8, 28.2, 22.4, 20.2, 17.8, 16.5, 13.7, 11.7 ppm±0.2 ppm. • 13. […] A crystalline form according to any of Paragraphs 1, 2, 3, 4, 5, 6, 7, 8, 9, 10, 11, 12, 13, 14 or 15, which is a hydrate, preferably wherein the crystalline form contains from 5.2 to 5.7 wt % water. • 17. A crystalline form according to any of Paragraphs 1, 2, 3, 4, 5, 6, 7, 8, 9, 10, 11, 12, 13, 14, 15 or 16, comprising agglomerates having spherical morphology, preferably wherein: at least 50%, at least 60%, at least 70%, at least 80% or at least 90% of the agglomerates have spherical morphology, preferably wherein the circularity of at least 50% (preferably: at least 60%, at least 70%, at least 80% or at least 90%) of the particles on a volume basis is: greater than or equal to about 0.85, about 0.86 to 1, about 0.88 to about 0.98, about 0.90 to about 0.96, about 0.92 to about 0.96. • 18. […] A process according to any of Paragraphs 18 or 19, wherein the solution in step (i) is prepared by heating, preferably to a temperature of about 80° C. to about 150° C., about 90° C. to about 130° C. • 21. […]

[3] = characterized according to Carr RL, Chem Eng 1965
Procedure: Whole amount material was put in graduated cylinder. A graduated cylinder with the sample was attached to Erweka SVM tapped density tester and tapped with 1250 strikes. Volume of the powder is measured. Bulk density is measured as ratio between mass of sample (ms) and unsettled apparent volume (V0) of sample in graduated cylinder. Tap Density is measured as ratio between mass of sample (ms) and final tapped volume of sample (Vf). Compressibility index and Hausner ratio were calculated according to obtained results of bulk and tapped density.

trisodium valsartan:sacubitril [Form II]
circularity (v0.5) [1]: greater than 0.85
chemical and polymorphic stability ([2]; protected from moisture, stored at 25° C./60% RH): chemically and polymorphically stable
chemical and polymorphic stability ([2]; protected from moisture, stored at 40° C./75% RH): chemically and polymorphically stable
chemical and polymorphic stability ([2]; protected from moisture, stored at 50° C.): chemically and polymorphically stable
chemical and polymorphic stability ([2]; protected from moisture, stored at 50° C./80% RH): chemically and polymorphically stable
chemical and polymorphic stability ([2]; stored for 8 weeks at 25° C./60% RH): chemically and polymorphically stable
chemical and polymorphic stability ([2]; stored for 8 weeks at 50° C.): chemically and polymorphically stable
flow properties [3]: good-excellent
